# Test results reported in patent publication US20240287065A1, “COMPOUND AS CDK KINASE INHIBITOR AND USE THEREOF” (TYK MEDICINES (ZHENGZHOU) , INC., priority 2021, published 2024).
# What was measured:
# CDK6/CycD1 = CDK6/CycD1 (Homo sapiens, UniProt Q00534); assay: Enzyme activity test; type: biochemical;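 further: values come from the source column headed CDK6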
# Protocol: (§1) • 1. The test compounds and pabocinib were configured into a […] solution of DMSO; • 2. 20 nL of stock solution was transferred to a 384-well plate using Echo550. DMSO was used as a blank control.
# (§2) • 1. according to the following table to prepare 1.3X enzyme solution containing enzyme, substrate and cofactor; • 2. 15 μL of 1.3X enzyme solution was added to each well and the mixture was incubated for 30 min at room temperature; • 3. 5 μL of ATP solution was added to initiate the reaction. The final volume of each well was 20 μL; • 4. After incubation for 150 min at room temperature, 75 μL of termination buffer solution was added to terminate the experiment; • 5. The samples were analyzed using EZ reader.
# (§3) The % inhibition was calculated using the following equation
# (§4) The one treated with DMSO is the positive control (PC)
# (§5) The one without enzyme is the negative control (NC)
# (§6) % Inhibition=100-100*((CRPC−CRsample)/(CRPC−CRNC))
# CDK2/CycE1 = CDK2/CycE1 (Homo sapiens, UniProt P24941); assay: Enzyme activity test; type: biochemical;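 further: values come from the source column headed CDK2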
# Protocol: as §1, §2, §3, §4, §5, §6
# CDK4/CycD3 = CDK4/CycD3 (Homo sapiens, UniProt P11802); assay: Enzyme activity test; type: biochemical;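 further: values come from the source column headed CDK4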
# Chain of CDK4/CycD3 (P11802 whole entry, species assumed): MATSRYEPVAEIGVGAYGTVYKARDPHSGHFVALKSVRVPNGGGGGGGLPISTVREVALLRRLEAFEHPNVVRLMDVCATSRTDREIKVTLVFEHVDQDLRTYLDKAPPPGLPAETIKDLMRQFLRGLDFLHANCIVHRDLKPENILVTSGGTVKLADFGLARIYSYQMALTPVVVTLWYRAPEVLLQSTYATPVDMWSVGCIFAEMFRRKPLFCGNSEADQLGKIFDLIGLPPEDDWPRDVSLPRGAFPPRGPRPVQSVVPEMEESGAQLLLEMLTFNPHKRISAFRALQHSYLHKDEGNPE
# Chain of CDK4/CycD3 (P30281 whole entry partner, species assumed): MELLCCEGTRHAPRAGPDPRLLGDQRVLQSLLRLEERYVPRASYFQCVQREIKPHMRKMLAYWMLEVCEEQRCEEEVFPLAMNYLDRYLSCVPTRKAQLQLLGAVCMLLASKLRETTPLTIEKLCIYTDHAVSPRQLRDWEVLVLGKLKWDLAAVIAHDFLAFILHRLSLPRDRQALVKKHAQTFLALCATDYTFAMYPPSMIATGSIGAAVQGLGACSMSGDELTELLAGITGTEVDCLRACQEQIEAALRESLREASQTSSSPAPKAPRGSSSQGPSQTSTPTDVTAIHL
# Protocol: as §1, §2, §3, §4, §5, §6
# T47D cells = assay: Cell proliferation inhibition assay (MTT, 7 days); type: cell-based; conditions: Homo sapiens, 168 h, 7 days incubation
# Protocol: (§7) MCF7, T47D, OVCAR3 and HCC1806 cells were inoculated in 96-well plates at 3000, 3000, 2500, and 2000 cells/well, respectively, and cultured overnight at 37° C., 5% C02 incubator.
# (§8) 1. […] Then 2.5 μl of the stock solution was dissolved in 497.5 μl of DMSO-free medium, and then a 3-fold serial gradient dilution was performed with 0.1% DMSO medium for a total of 9 concentrations, and the concentrations of the compounds after dilution were as follows: • 10000 nM, 3333.33 nM, 1111.11 nM, 370.34 nM, 123.45 nM, 41.15 nM, 13.72 nM, 4.57 nM, and 1.52 nM. • b) After fully mixing, 20 μL of compound solutions were added into cell culture plates containing 80 μL of cells respectively, with 4 replicate wells for each concentration. • c) The cells were transferred to an incubator and incubated for 7 days, and exchanged with fresh culture medium containing the same concentration of compounds when incubated to day 4. 2. MTT assay • a) The cell culture plate was taken out and 10 μL of 5 mg/ml MTT was added to the hood. • b) The cell culture plate was put back into the incubator and continued to incubate for 3 hours. • c) The cell culture plate was taken out to remove the culture medium, and 100 μL of isopropanol (0.4 mMHCl, 0.4% NP40) was added to the plate, and the plate was shaken on a shaker at room temperature for 30 minutes and read at 570 nm. 3. Data analysis
# (§9) The survival rate (% Cell Survival) was calculated using the following equation:
# (§10) % Cell Survival=100%×(OD_Sample−OD_LCave)/(OD_HC−OD_LCave) • OD_HC: 0.1‰ cell readings of DMSO control • OD_Sample: cell readings of compound addition • OD_LC: readings of blank medium • Analyed by Prizm: Dose-response-Inhibition Log(inhibitor) vs response (three parameters for the best fit)
# (§11) IC50 (nM) values were calculated by concentration-response curve fitting.
# OVCAR3 cells = assay: Cell proliferation inhibition assay (MTT, 7 days); type: cell-based; conditions: Homo sapiens, OVCAR-3, 168 h, 7 days incubation
# Protocol: as §7, §8, §9, §10, §11
# MCF7 cells = assay: Cell proliferation inhibition assay (MTT, 7 days); type: cell-based; conditions: Homo sapiens, 168 h, 7 days incubation
# Protocol: as §7, §8, §9, §10, §11
# HCC1806 cells = assay: Cell proliferation inhibition assay (MTT, 7 days); type: cell-based; conditions: Homo sapiens, HCC1806, 168 h, HCC1086 [sic], 7 days incubation
# Protocol: as §7, §8, §9, §10, §11
# Chain of CDK6/CycD1 (Q00534 whole entry, species assumed): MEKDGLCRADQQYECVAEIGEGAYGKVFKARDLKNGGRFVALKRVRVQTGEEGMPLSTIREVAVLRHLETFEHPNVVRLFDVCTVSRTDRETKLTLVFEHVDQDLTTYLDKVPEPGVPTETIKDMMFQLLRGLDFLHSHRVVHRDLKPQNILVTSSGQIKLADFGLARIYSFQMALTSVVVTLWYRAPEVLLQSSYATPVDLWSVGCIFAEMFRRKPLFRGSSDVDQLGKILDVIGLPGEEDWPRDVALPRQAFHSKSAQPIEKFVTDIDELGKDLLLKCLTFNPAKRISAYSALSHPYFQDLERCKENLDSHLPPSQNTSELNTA
# Chain of CDK6/CycD1 (P24385 whole entry partner, species assumed): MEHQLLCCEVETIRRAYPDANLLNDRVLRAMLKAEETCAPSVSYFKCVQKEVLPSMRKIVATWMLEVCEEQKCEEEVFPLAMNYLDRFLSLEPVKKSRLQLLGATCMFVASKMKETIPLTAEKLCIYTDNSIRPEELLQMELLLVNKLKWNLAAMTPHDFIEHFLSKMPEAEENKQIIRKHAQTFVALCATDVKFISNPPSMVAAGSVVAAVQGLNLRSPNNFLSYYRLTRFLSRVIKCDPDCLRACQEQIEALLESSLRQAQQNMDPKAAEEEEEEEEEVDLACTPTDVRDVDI
compound,measurement,setting,value
C[C@@]1(O)CCC[C@H]1n1c(=O)c(C2COC2)cc2cnc(NC3CCN(S(C)(=O)=O)CC3)nc21 [Example 1],IC50,CDK6/CycD1,10 to 100 nM
same,IC50,CDK2/CycE1,< 10 nM
same,IC50,CDK4/CycD3,10 to 100 nM
C[C@@]1(O)CCC[C@H]1n1c(=O)c(OC(F)F)cc2cnc(NC3CCN(S(=O)(=O)c4ccc(C(F)(F)F)cc4)CC3)nc21 [Example 5],IC50,CDK6/CycD1,< 10 nM
same,IC50,CDK2/CycE1,< 10 nM
same,IC50,CDK4/CycD3,10 to 100 nM
same,IC50,T47D cells,≤ 50 nM
same,IC50,OVCAR3 cells,50 to 5200 nM
same,IC50,MCF7 cells,50 to 5200 nM
same,IC50,HCC1806 cells,50 to 5200 nM
C[C@@]1(O)CCC[C@H]1n1c(=O)c(OC(F)F)cc2cnc(NC3CCN(S(=O)(=O)c4ccc(C#N)cc4)CC3)nc21 [Example 6],IC50,CDK6/CycD1,< 10 nM
same,IC50,CDK2/CycE1,< 10 nM
same,IC50,CDK4/CycD3,< 10 nM
same,IC50,T47D cells,≤ 50 nM
same,IC50,OVCAR3 cells,≤ 50 nM
same,IC50,MCF7 cells,≤ 50 nM
same,IC50,HCC1806 cells,≤ 50 nM
C[C@@]1(O)CCC[C@H]1n1c(=O)c(OC(F)F)cc2cnc(NC3CCN(S(=O)(=O)c4ccc(F)cc4F)CC3)nc21 [Example 7],IC50,CDK6/CycD1,< 10 nM
same,IC50,CDK2/CycE1,< 10 nM
same,IC50,CDK4/CycD3,< 10 nM
same,IC50,T47D cells,≤ 50 nM
same,IC50,OVCAR3 cells,50 to 5200 nM
same,IC50,MCF7 cells,50 to 5200 nM
same,IC50,HCC1806 cells,50 to 5200 nM
Cc1ccc(S(=O)(=O)N2CCC(Nc3ncc4cc(OC(F)F)c(=O)n([C@@H]5CCC[C@@]5(C)O)c4n3)CC2)cc1 [Example 8],IC50,CDK6/CycD1,< 10 nM
same,IC50,CDK2/CycE1,< 10 nM
same,IC50,CDK4/CycD3,10 to 100 nM
same,IC50,T47D cells,≤ 50 nM
same,IC50,OVCAR3 cells,≤ 50 nM
same,IC50,MCF7 cells,50 to 5200 nM
same,IC50,HCC1806 cells,50 to 5200 nM
C[C@@]1(O)CCC[C@H]1n1c(=O)c(OC(F)F)cc2cnc(NC3CCN(S(=O)(=O)c4ccccc4C#N)CC3)nc21 [Example 9],IC50,CDK6/CycD1,< 10 nM
same,IC50,CDK2/CycE1,< 10 nM
same,IC50,CDK4/CycD3,< 10 nM
same,IC50,T47D cells,50 to 5200 nM
same,IC50,OVCAR3 cells,≤ 50 nM
same,IC50,MCF7 cells,50 to 5200 nM
same,IC50,HCC1806 cells,50 to 5200 nM
COc1cccc(S(=O)(=O)N2CCC(Nc3ncc4cc(OC(F)F)c(=O)n([C@@H]5CCC[C@@]5(C)O)c4n3)CC2)c1 [Example 10],IC50,CDK6/CycD1,< 10 nM
same,IC50,CDK2/CycE1,< 10 nM
same,IC50,CDK4/CycD3,< 10 nM
same,IC50,T47D cells,≤ 50 nM
same,IC50,OVCAR3 cells,≤ 50 nM
same,IC50,MCF7 cells,50 to 5200 nM
same,IC50,HCC1806 cells,50 to 5200 nM
C[C@@]1(O)CCC[C@H]1n1c(=O)c(OC(F)F)cc2cnc(NC3CCN(S(=O)(=O)c4ccc(S(C)(=O)=O)cc4)CC3)nc21 [Example 11],IC50,CDK6/CycD1,< 10 nM
same,IC50,CDK2/CycE1,< 10 nM
same,IC50,CDK4/CycD3,< 10 nM
same,IC50,T47D cells,≤ 50 nM
same,IC50,OVCAR3 cells,≤ 50 nM
same,IC50,MCF7 cells,≤ 50 nM
same,IC50,HCC1806 cells,≤ 50 nM
COc1ccccc1S(=O)(=O)N1CCC(Nc2ncc3cc(OC(F)F)c(=O)n([C@@H]4CCC[C@@]4(C)O)c3n2)CC1 [Example 14],IC50,CDK6/CycD1,< 10 nM
same,IC50,CDK2/CycE1,< 10 nM
same,IC50,CDK4/CycD3,10 to 100 nM
same,IC50,T47D cells,≤ 50 nM
same,IC50,OVCAR3 cells,50 to 5200 nM
same,IC50,MCF7 cells,50 to 5200 nM
same,IC50,HCC1806 cells,50 to 5200 nM
C[C@@]1(O)CCC[C@H]1n1c(=O)c(OC(F)F)cc2cnc(NC3CCN(S(=O)(=O)c4cc(F)cc(F)c4)CC3)nc21 [Example 15],IC50,CDK6/CycD1,< 10 nM
same,IC50,CDK2/CycE1,< 10 nM
same,IC50,CDK4/CycD3,< 10 nM
same,IC50,T47D cells,50 to 5200 nM
same,IC50,OVCAR3 cells,50 to 5200 nM
same,IC50,MCF7 cells,50 to 5200 nM
same,IC50,HCC1806 cells,50 to 5200 nM
C[C@@]1(O)CCC[C@H]1n1c(=O)c(OC(F)F)cc2cnc(NC3CCN(S(=O)(=O)c4ccccc4)CC3)nc21 [Example 16],IC50,CDK6/CycD1,< 10 nM
same,IC50,CDK2/CycE1,< 10 nM
same,IC50,CDK4/CycD3,< 10 nM
same,IC50,T47D cells,≤ 50 nM
same,IC50,OVCAR3 cells,≤ 50 nM
same,IC50,MCF7 cells,≤ 50 nM
same,IC50,HCC1806 cells,≤ 50 nM
C[C@@]1(O)CCC[C@H]1n1c(=O)c(OC(F)F)cc2cnc(NC3CCN(S(=O)(=O)c4cccc(F)c4)CC3)nc21 [Example 17],IC50,CDK6/CycD1,< 10 nM
same,IC50,CDK2/CycE1,< 10 nM
same,IC50,CDK4/CycD3,< 10 nM
same,IC50,T47D cells,≤ 50 nM
same,IC50,OVCAR3 cells,≤ 50 nM
same,IC50,MCF7 cells,≤ 50 nM
same,IC50,HCC1806 cells,≤ 50 nM
C[C@@]1(O)CCC[C@H]1n1c(=O)c(OC(F)F)cc2cnc(NC3CCN(S(=O)(=O)c4ccc(F)c(F)c4)CC3)nc21 [Example 18],IC50,CDK6/CycD1,< 10 nM
same,IC50,CDK2/CycE1,< 10 nM
same,IC50,CDK4/CycD3,< 10 nM
same,IC50,T47D cells,≤ 50 nM
same,IC50,OVCAR3 cells,≤ 50 nM
same,IC50,MCF7 cells,50 to 5200 nM
same,IC50,HCC1806 cells,≤ 50 nM
CN(C)c1ccc(S(=O)(=O)N2CCC(Nc3ncc4cc(OC(F)F)c(=O)n([C@@H]5CCC[C@@]5(C)O)c4n3)CC2)cc1 [Example 22],IC50,CDK6/CycD1,< 10 nM
same,IC50,CDK2/CycE1,< 10 nM
same,IC50,CDK4/CycD3,10 to 100 nM
same,IC50,T47D cells,≤ 50 nM
same,IC50,OVCAR3 cells,≤ 50 nM
same,IC50,MCF7 cells,50 to 5200 nM
same,IC50,HCC1806 cells,50 to 5200 nM
CC(C)(C)c1ccc(S(=O)(=O)N2CCC(Nc3ncc4cc(OC(F)F)c(=O)n([C@@H]5CCC[C@@]5(C)O)c4n3)CC2)cc1 [Example 23],IC50,CDK6/CycD1,10 to 100 nM
same,IC50,CDK2/CycE1,< 10 nM
same,IC50,CDK4/CycD3,10 to 100 nM
same,IC50,T47D cells,50 to 5200 nM
same,IC50,OVCAR3 cells,50 to 5200 nM
same,IC50,MCF7 cells,50 to 5200 nM
same,IC50,HCC1806 cells,200 to 51000 nM
COc1ccc(S(=O)(=O)N2CCC(Nc3ncc4cc(OC(F)F)c(=O)n([C@@H]5CCC[C@@]5(C)O)c4n3)CC2)cc1 [Example 24],IC50,CDK6/CycD1,< 10 nM
same,IC50,CDK2/CycE1,< 10 nM
same,IC50,CDK4/CycD3,< 10 nM
same,IC50,T47D cells,≤ 50 nM
same,IC50,OVCAR3 cells,≤ 50 nM
same,IC50,MCF7 cells,≤ 50 nM
same,IC50,HCC1806 cells,≤ 50 nM
C[C@@]1(O)CCC[C@H]1n1c(=O)c(OC(F)F)cc2cnc(NC3CCN(S(=O)(=O)C4CCCC4)CC3)nc21 [Example 48],IC50,CDK2/CycE1,< 10 nM
same,IC50,CDK4/CycD3,< 10 nM
same,IC50,T47D cells,50 to 5200 nM
same,IC50,OVCAR3 cells,≤ 50 nM
same,IC50,MCF7 cells,50 to 5200 nM
same,IC50,HCC1806 cells,50 to 5200 nM
CN1CCC(c2ccc(Nc3ncc4cc(OC(F)F)c(=O)n([C@@H]5CCC[C@@]5(C)O)c4n3)cc2)CC1 [Example 61],IC50,CDK6/CycD1,< 10 nM
same,IC50,CDK2/CycE1,10 to 100 nM
same,IC50,CDK4/CycD3,< 10 nM
C[C@@]1(O)CCC[C@H]1n1c(=O)c(OC(F)F)cc2cnc(NC3CCN(S(=O)(=O)N4CCOCC4)CC3)nc21 [Example 66],IC50,CDK6/CycD1,< 10 nM
same,IC50,CDK2/CycE1,< 10 nM
same,IC50,CDK4/CycD3,10 to 100 nM
same,IC50,T47D cells,50 to 5200 nM
same,IC50,OVCAR3 cells,≤ 50 nM
same,IC50,HCC1806 cells,50 to 5200 nM
CN([C@H]1CC[C@H](Nc2ncc3cc(OC(F)F)c(=O)n([C@@H]4CCC[C@@]4(C)O)c3n2)CC1)S(C)(=O)=O [Example 69],IC50,CDK6/CycD1,10 to 100 nM
same,IC50,CDK2/CycE1,< 10 nM
same,IC50,CDK4/CycD3,10 to 100 nM
